Experimental data published in US12415802B1, “Dipyridine benzothiophene derivative compound” (KING FAISAL UNIVERSITY, priority 2025, dated 2025).

Experiment: DPPH radical scavenging antioxidant test
Assay type: biochemical
Conditions: 517 nm; for Inhibition (radical scavenging inhibition): 0.2 mL DPPH (0.75 mM), compound (3p M) in ethanol, 30 minutes in the dark; for antioxidant activity (in words): DPPH in vitro test, vitamin C as positive control
Description: A dipyridine benzo[b]thiophene derivative compound comprises 4-(1-benzothiophen-2-yl)-6-ethoxy-2,3′-bipyridine-5-carbonitrile. […] As described herein, the antioxidant activity of 4-(1-benzothiophen-2-yl)-6-ethoxy-2,3′-bipyridine-5-carbonitrile was investigated by 2,2-diphenyl-1-picrylhydrazyl (DPPH) in vitro tests that employ vitamin C as the positive control.
The antioxidant properties of the 4-(1-benzothiophen-2-yl)-6-ethoxy-2,3′-bipyridine-5-carbonitrile compound were studied by adding 0.2 mL DPPH (0.75 mM)) to 4-(1-benzothiophen-2-yl)-6-ethoxy-2,3′-bipyridine-5-carbonitrile (3p M) (4) in ethanol. After 30 minutes of incubation in the dark, the absorbance was read against a blank at 517 nm. Ascorbic acid (Vitamin C) was used as a standard antioxidant (positive control). A blank sample was prepared by 0.2 mL of DPPH in 3 mL ethanol. A negative control sample was run using ethanol instead of the sample. The radical scavenging inhibition was calculated using the following equation: […]
The antioxidant activity for the synthesized compound is listed in Table 1, using Vitamin C as a reference.

Compound | Inhibition (radical scavenging inhibition) | antioxidant activity (in words) | antioxidant activity (in words) (listed as III)
CCOc1nc(-c2cccnc2)cc(-c2cc3ccccc3s2)c1C#N [Product 4, 4-(1-benzothiophen-2-yl)-6-ethoxy-2,3′-bipyridine-5-carbonitrile] | 48% | high antioxidant activities | high potential as an antioxidant compared to vitamin C
O=C1O[C@H]([C@@H](O)CO)C(O)=C1O [Vit C, Ascorbic acid, reference compound] | 74% | – | –
